Measured values: patent US8198085B2, “Somatic cells for use in cell therapy” (Core Dynamics Limited, priority 2005, dated 2012)
Several values for one entry are separate records, joined by “and”; a condition that tells them apart may be missing. Equal values may be shown once.

How the values were obtained:
[1] = system: UCB derived MNC (mature lymphocytes, CD3); assay: CD3 expression by FACS after lyophilization and re-hydration; type: cell-based, human; settings: 0.1M trehalose
Procedure: Sample's volume was 2.5 ml and samples were frozen and then lyophilized as described above. After being in the lyophilizer for 72 h, the samples were taken out and re-hydrated with 2.4 ml of DDW at 37° C. After re-hydration samples were assayed for CD3 using FACS (fluorescent-activated cell sorter) in accordance with the method described in Hulling et al. The Journal of Immunology 2003, 171: 4824-4829.

[2] = system: UCB derived MNC; assay: Cell proliferation assay based on thymidine incorporation; design: species or system human; settings: cells lyophilized at ×10 EGCG (1.89 mg/ml) compared with ×2.5 EGCG (0.47 mg/ml); 48 hour incubation; FIG. 3
Procedure: Sample's volume was 2.5 ml and samples were frozen and then lyophilized as described above. After being in the lyophilizer for 72 h, the samples were taken out and re-hydrated with 2.4 ml of DDW at 37° C. After re-hydration samples were assayed for CD3 using FACS (fluorescent-activated cell sorter) in accordance with the method described in Hulling et al. The Journal of Immunology 2003, 171: 4824-4829. In addition, a cell proliferation assay was performed. In brief, the hydrated cells were incubated for 48 hour after which a proliferation assay based on thymidine incorporation was carried out (Promega, USA). The results of the proliferation assay are depicted in FIG. 3, wherein the proliferation index of the cells is depicted as a function of their number at initial plating.

[3] = system: mononuclear cells (MNC) derived from umbilical cord blood (UCB); assay: Membrane integrity (SYBR14/PI live/dead stain) of UCB derived MNC after freeze thawing or freeze drying; type: cell-based, human; settings: for Membrane integrity (%): 0.1M trehalose in PBS
Procedure: In the following experiments umbilical cord blood (UCB) was received from “Sheba” Medical Center. The blood was separated on ficoll-paque gradient. 3 ml of Histopaque 1077 was put in a 15 ml plastic test tube. Above it 3 ml of UCB was put and the samples were centrifuged for 30 minutes at 1000 g. After spinning was finished the mononuclear layer was taken out and PBS was added up to 10 ml total volume. The samples were centrifuged again for 10 minutes at 200 g or 250 g., after which, the supernatant was discarded and another step of washing was performed (again, 10 ml PBS was added and samples were centrifuged for 10 minutes at 250 g). At the end of this step a freezing solution (as detailed in each experiment) was added to the cells pellet. The volume of the freezing solution varied depending on the desired cell concentration (concentrations may range for example from 1 to 10×10^6 cells/ml) or volume. Unless otherwise mentioned, a 2.5 ml cell suspension was transferred into a 16 mm glass tube that was then frozen using a multi-gradient directional freezing system (MTG-516 by IMT, Israel), operated essentially as described in WO03/020874.
Unless otherwise stated, the directional freezing system temperatures were set to: 5° C. to −10° C. to −40° C. to −70° C. Seeding was performed before the samples entered the −10° C. temperature. The velocity at which the samples were pushed through the channels of the freezing machine was set to 0.2 mm/sec, resulting in a cooling rate of 5.1° C./min. During freezing the samples were rotated at 60 rounds per minute (RPM). After completion of the freezing process, samples were put in a liquid-nitrogen (LN) tank until they were either thawed or transferred into a lyophilizer.
Lyophilization was performed by taking samples out of the LN tank and putting them in a commercial lyophilizer near the condenser (Labconco, USA), at condenser temperature of −80° C. Samples were held in the lyophilizer for 3 days. After 3 days of lyophilization samples were taken out and rehydrated with 2.4 ml of double distilled water (DDW) at 37° C.
Viability was assessed using the live/dead fluorescent stain SYBR14/PI (Propidium Iodide) or SYTO/PI (both from Molecular Probes, USA) for membrane integrity. These stains are nucleic acid stains, SYBR14 and SYTO are membrane permeable molecules and PI can enter the cell only if the membrane is damaged. Where so specified, the assay used was trypan blue (TB).

[4] = system: macrophages; assay: Membrane integrity (SYBR14/PI) of macrophage units after freeze thawing and freeze drying; type: cell-based; settings: for cell survival (membrane integrity): freeze-dried, 0.5M Trehalose
Text: Macrophage units were supplied by Professor Danon, Israel blood services, Tel-Hashomer, Israel. In the following experiments all buffy coats and/or macrophage units referred to were manipulated using the method and system for cultivating macrophages described in U.S. Pat. No. 6,146,890 which is incorporated herein by reference in its entirety, whereby hypo-osmotic shock is used to enhance the cells' differentiation into macrophages. Such manipulated cells were reported not to maintain viability after a conventional freezing process therefore their shelf life is very short, limiting their applications.
A part of the buffy coat was separated in order to produce mononuclear cells which include the monocyte/macrophage layer. The blood was separated on a Ficoll-Paque gradient for 30 minutes at 1000 g, afterwards the mononuclear layer was drawn out and washed twice in Phosphate Buffered Saline (PBS) (Calcium and Magnesium free, Bet Haemek, Israel) for 10 minutes at 200 g. The pellet was then resuspended with 3 ml of culture medium (RPMI 1640 with glutamine, 10% fetal calf serum and 1% antibiotic, all supplied by Bet Haemek, Israel). The rest of the buffy coat was left untouched.
Whole buffy coat or mononuclear cells in culture medium were incubated for one hour with different concentrations of Trehalose (0.1, 0.3, 0.5 and 1M). Incubation was done at 37° C., 5% CO2 humidified incubator.
Buffy coat samples and MNC samples were frozen by using the MTG-516 freezing apparatus (IMT, Israel) at a cooling rate of 5.1° C./min. Samples were rotated during freezing at 56 rounds per minute. After freezing, all samples were plunged into liquid nitrogen. Thawing was done at 37° C. in a water bath. Lyophilization was done by putting the frozen samples in a commercial lyophilizer (Labconco, USA) with a condenser temperature of −80° C. After drying, the cells were rehydrated with ultra pure water at 37° C. in order to regain their original volume (2.5 ml). […]

| Structure (SMILES) | CD3 (%) ([1]; Lyophilized with 0.47 mg/ml EGCG) | CD3 (%) ([1]; Lyophilized with 1.89 mg/ml EGCG) | proliferation index [2] | membrane integrity ([3]; 0.1M trehalose with 0.945 or 1.89 mg/ml EGCG, lyophilized and rehydrated, FIG. 2B) | viability (EGCG dose response) ([3]; 0.4M Trehalose, 0.189, 0.47, 0.945 and 1.89 mg/ml EGCG, after freezing and thawing and after freeze drying and re-hydration (exception 0.945 mg/ml after freeze-drying)) | Membrane integrity (%) ([3]; Fresh with 0.47 mg/ml EGCG) | Membrane integrity (%) ([3]; Lyophilized with 0.47 mg/ml EGCG, re-hydrated) | percentage of cells that presented an intact membrane ([3]; after freeze drying with 1.89 mg/ml EGCG, 0.4M Trehalose in PBS, FIG. 2A) | cell survival (membrane integrity) ([4]; second experiment, FIG. 6C) | cell survival (membrane integrity) ([4]; without Ficoll-Paque separation, FIG. 6B) | membrane integrity ([4]; frozen-thawed with 0.5M trehalose, whole macrophage units, FIG. 6C) |
| --- | --- | --- | --- | --- | --- | --- | --- | --- | --- | --- | --- |
| O=C(O[C@@H]1Cc2c(O)cc(O)cc2O[C@@H]1c1cc(O)c(O)c(O)c1)c1cc(O)c(O)c(O)c1 [EGCG, Epigallocatechin gallate] | 80% | 81% and 83% and 82% and 78% | higher proliferation index | very high | increased with increasing EGCG concentration | 97.36 ± 2.2% | 55.1 ± 8.5% and 59.8 ± 1.4% | about 90% |  |  |  |
| OC[C@H]1O[C@H](O[C@H]2O[C@H](CO)[C@@H](O)[C@H](O)[C@H]2O)[C@H](O)[C@@H](O)[C@@H]1O [trehalose, Trehalose] |  |  |  |  |  |  |  |  | 55.35±2.9% | 91.86±4.2% | 72.03±2.8% |
